Measurements taken from patent US9200046B2, “Reporter system for high throughput screening of compounds and uses thereof” (priority 2011, dated 2015).
Counter-ions that a name gives are not always drawn. Like-named read-outs stand apart in the source and are kept apart here.

Biological target: Nrf2-Keap1 complex (Homo sapiens, UniProt Q14145)
Assay: cell-based
Format: cell-based
Settings: for activation at 16 µM / activation at 32 µM: 3 h; for activation at 16 µM: read-out: Activation 100 nL; for activation at 32 µM: read-out: Activation 200 nL
[1] = Table 2, 100 nL compound, screen run at 16 and 32 μM, 3 hr
[2] = Table 2, 200 nL compound, screen run at 16 and 32 μM, 3 hr
[3] = Table 1A, 100 nL compound, screen run at 16 and 32 μM, 3 hr
[4] = Table 1A, 200 nL compound, screen run at 16 and 32 μM, 3 hr

Nrf2-Keap1 complex, sequence (Q14145 whole entry, one chain of several): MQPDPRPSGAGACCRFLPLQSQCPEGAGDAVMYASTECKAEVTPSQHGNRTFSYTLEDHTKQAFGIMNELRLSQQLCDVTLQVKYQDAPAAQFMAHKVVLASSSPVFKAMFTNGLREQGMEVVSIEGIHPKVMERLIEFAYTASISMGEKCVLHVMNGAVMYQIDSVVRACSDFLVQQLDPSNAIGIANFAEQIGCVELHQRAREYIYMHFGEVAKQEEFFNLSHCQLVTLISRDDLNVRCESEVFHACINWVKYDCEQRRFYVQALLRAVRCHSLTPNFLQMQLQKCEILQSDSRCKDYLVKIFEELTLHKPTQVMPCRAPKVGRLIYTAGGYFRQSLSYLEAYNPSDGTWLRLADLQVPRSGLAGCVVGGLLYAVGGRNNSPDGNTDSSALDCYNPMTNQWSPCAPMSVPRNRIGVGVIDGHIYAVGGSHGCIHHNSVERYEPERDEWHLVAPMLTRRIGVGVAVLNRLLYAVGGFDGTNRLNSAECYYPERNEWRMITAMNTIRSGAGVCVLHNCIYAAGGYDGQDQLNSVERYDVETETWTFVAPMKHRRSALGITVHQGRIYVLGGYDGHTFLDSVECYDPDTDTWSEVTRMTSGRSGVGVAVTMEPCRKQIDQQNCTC

Row | SMILES | 100 nL (luminescence) [1] | 200 nL (luminescence) [2] | activation at 16 µM [%] | activation at 32 µM [%] | also measured
1 | CC(=O)O[C@@H]1CC2C(C)(C)[C@H](O)C=C[C@]2(C)C2CC[C@]3(C)C(=CC(=O)O[C@H]3c3ccoc3)[C@@]21C (stereo partly drawn) [3-alpha-HYDROXYDEOXYGEDININ] | 1196 | 1764 |  |  | Activation 100 nL: 55%; Activation 200 nL: 94%
2 | O=C(/C=C/C(=O)Oc1ccccc1C(=O)O)Oc1ccccc1C(=O)O [BISSALICYLFUMARATE] |  |  | 338 | 156 | 
3 | COc1ccc2cc1Oc1ccc(cc1)C[C@H]1c3cc(c(OC)cc3CCN1C)Oc1c(OC)c(OC)cc3c1[C@H](C2)N(C)CC3 [TETRANDRINE] |  |  | 85 | 18 | 100 nL (luminescence) [3]: 1660; 200 nL (luminescence) [4]: 596
4 | COc1cc(C)c2c(c1C=O)Oc1c(c(C)c(O)c3c1C(O)OC3=O)OC2=O (centres unmarked) [[…]] | 1114 | 1952 | 56 | 65 | 
5 | COc1cc([C@@H]2c3cc4c(c(O)c3C[C@H]3COC(=O)[C@@H]32)OCO4)cc(OC)c1OC [beta-PELTATIN] |  |  | 62 | 21 | 100 nL (luminescence) [3]: 910; 200 nL (luminescence) [4]: 836
6 | COC(=O)C(N)CS (centres unmarked) [MECYSTEINEHYDROCHLORIDE, reference compound] |  |  | 82 | 216 | 100 nL (luminescence): 2028; 200 nL (luminescence): 3064
7 | Cn1cnc([N+](=O)[O-])c1Sc1[nH]cnc2ncnc1-2 [AZATHIOPRINE, reference compound] |  |  | 49 | 70 | 100 nL (luminescence): 948; 200 nL (luminescence): 1804; hit strength in the screen (words): modest hits
8 | Nc1ncnc2c1ncn2C1O[C@H](COP(=O)(O)O)[C@@H](O)[C@H]1O (some centres unmarked) [ADENOSINEPHOSPHATE, reference compound] |  |  | 27 | 14 | 100 nL (luminescence) [3]: 924; 200 nL (luminescence) [4]: 556
9 | C=C1C[C@@H]2[C@H](CC[C@]3(C)C(=O)CC[C@@H]23)[C@@]2(C)C=CC(=O)C=C12 [EXEMESTANE, reference compound] | 4836 | 4668 | 261 | 220 | 
10 | CC(=O)Nc1ccc(O)cc1 [ACETAMINOPHEN, reference compound] |  |  | 53 | 32 | 100 nL (luminescence): 996; 200 nL (luminescence): 1012; Neh2-luc reporter activation: more than 50%
11 | CC(=O)O[C@@H]1C[C@H]2C(C)(C)[C@@H](O)CC[C@]2(C)[C@H]2CC[C@@]3(C)[C@H](c4ccoc4)OC(=O)[C@H]4O[C@]43[C@@]21C [beta-DIHYDROGEDUNOL] | 2270 | 3252 |  |  | Activation 100 nL: 217%; Activation 200 nL: 124%; Neh2-luc reporter activation: 220%
12 | CC(=O)O[C@@H]1CC2C(C)(C)[C@H](O)CC[C@]2(C)C2CC[C@@]3(C)[C@H](c4ccoc4)OC(=O)C4OC43[C@@]21C (stereo partly drawn) [alpha-DIHYDROGEDUNOL] | 720 | 1008 |  |  | Activation 100 nL: 41%; Activation 200 nL: 29%; Neh2-luc reporter activation: 40%
13 | COc1cc(O)c(C(=O)c2ccccc2)cc1O [CEAROIN] | 1076 | 2988 | 53 | 111 | 
14 | Nc1ncnc2c1ncn2[C@@H]1O[C@H](CO)[C@@H](O)[C@H]1O [ADENOSINE, reference compound] |  |  | 61 | 20 | 100 nL (luminescence): 1100; 200 nL (luminescence): 760; hit strength in the screen (words): modest hits
15 | COc1cc(/C=C/C(=O)CC(=O)/C=C/c2ccc(O)c(OC)c2)ccc1O [CURCUMIN] | 4208 | 264 | 252 | -4 | 
16 | CC(C)=CCCC1(C)C=Cc2c(O)c3c(c(CC=C(C)C)c2O1)OC12C(CC4CC1C(C)(C)OC2(C/C=C(/C)C(=O)O)C4O)C3=O (centres unmarked) [TETRAHYDROGAMBOGICACID] | 5480 | 2748 |  |  | Activation 100 nL: 383%; Activation 200 nL: 100%
17 | CN1CCN(CC/C=C2/c3ccccc3Sc3ccc(S(=O)(=O)N(C)C)cc32)CC1 [THIOTHIXENE, reference compound] | 1500 | 68 | 55 | -26 | 
18 | COc1ccc2c(c1)[C@@]1(C)CCC(=O)C[C@H]1CC2 [5beta-12-METHOXY-4,4-BISNOR-8,11,13-PODOCARPATRIEN-3-ONE] |  |  | 46 | 13 | 100 nL (luminescence) [3]: 768; 200 nL (luminescence) [4]: 636
19 | CC1(C)C(C(Cl)Cl)C2(Cl)C(Cl)C(Cl)C1(Cl)C2(Cl)Cl (centres unmarked) [TOXAPHENE] | 5648 | 5632 | 395 | 226 | 
20 | CC(C)c1cccc(=O)c(O)c1 [HINOKITIOL] | 860 | 372 | 29 | 1 | 
21 | O=C1c2cccc(O)c2C(=O)c2c(O)cccc21 [DANTRON, reference compound] | 616 | 1020 | 29 | 29 | 
22 | CCCCC1C(=O)N(c2ccccc2)N(c2ccc(O)cc2)C1=O (centres unmarked) [OXYPHENBUTAZONE, reference compound] | 1760 | 3084 |  |  | Activation 100 nL: 113%; Activation 200 nL: 131%
23 | CCCOc1ccc2nc(NC(=O)OC)[nH]c2c1 [OXIBENDAZOLE, reference compound] |  |  | 38 | 36 | 100 nL (luminescence) [3]: 1164; 200 nL (luminescence) [4]: 1064
